From US12559769B2, “Methods and compositions for the activation of tumor cytotoxicity via human gamma-delta t-cells” (priority 2017, dated 2026)

Test system: Vγ9Vδ2 T cells
Assay: Activation of Vγ9Vδ2 T cells (TNF-α, flow cytometry) by THP-1 monocytic leukemia cells co-cultured with expanded PBMC
Assay type: cell-based, human
Method: THP-1 cells (2×10^5 cells) were transduced with LV-control or LV-miR30 FDPS #1 (SEQ ID NO: 68) for 7 days. Cells were treated with or without 1 μM zoledronic acid. After 24 hours, the transduced THP-1 cells were co-cultured for 4 hours with 2×10^5 PBMC cells in 5 mL round-bottom tubes. The PBMC cells had been pre-stimulated with zoledronic acid plus IL-2 for at least 11 days to expand Vγ9Vδ2 T cells. After staining for Vγ9Vδ2 and TNF-α using fluorophore-conjugated anti TCR-Vδ2 and anti-TNF-α antibody, cells were analyzed via flow cytometry. Live cells were gated; Vδ2+ and TNF-α+ cells were identified on a dot blot. The activated cytotoxic Vγ9Vδ2 T cells appeared in the upper right quadrant of the flow cytograms. Without zoledronic acid, LV-control stimulated 2.44% of TNF-α expressing Vγ9Vδ2 T cells and LV-miR30 FDPS #1 (SEQ ID NO: 68) stimulated 28.4%. With zoledronic acid treatment, LV-control stimulated 23.8% of TNF-α expressing Vγ9Vδ2 T cells and LV-miR30 FDPS #1 (SEQ ID NO: 68) stimulated 61.4%.
THP-1 cells were transduced with LV-control or LV-FDPS shRNA #4 (SEQ ID NO: 4) or Lv-GGPS1 shRNA #1 (SEQ ID NO: 70) for 3 days. Two days after transduction, cells were treated with or without 1 μM zoledronic acid. After 24 hours, the transduced THP-1 cells were co-cultured for 4 hours with 5×10^5 PBMC cells in a round bottom 96 well plate. The PBMC cells had been pre-stimulated with zoledronic acid plus IL-2 for at least 11 days to expand Vγ9Vδ2 T cells. After staining for Vγ9Vδ2 and TNF-α using fluorophore-conjugated anti TCR-Vδ2 and anti-TNF-α antibody, cells were analyzed via flow cytometry. Live cells were gated; Vδ2+ and TNF-α+ cells were identified on a dot blot. The activated cytotoxic Vγ9Vδ2 T cells appeared in the upper right quadrant of the flow cytograms. Without zoledronic acid, LV-control stimulated 1.33% of TNF-α expressing Vγ9Vδ2 T cells whereas Lv-FDPS shRNA #4 (SEQ ID NO: 4) stimulated 2.49%, Lv-GGPS1 #1 shRNA (SEQ ID NO: 70) stimulated 1.22%, and both combined stimulated 1.91%. With zoledronic acid treatment, Lv-control stimulated 5.74% of TNF-α expressing Vγ9Vδ2 T cells, whereas Lv-FDPS shRNA #4 (SEQ ID NO: 4) stimulated 10.8%, Lv-GGPS1 shRNA #1 (SEQ ID NO: 70) stimulated 4.5%, and both combined stimulated 11.5%.
ZA is a small molecule inhibitor of squalene synthase in the pathway committed to sterol synthesis. THP-1 cells were treated with either the FDPS inhibitor Zol (10 μM), the famesyl transferase inhibitor FTI (10 μM), or ZA (50 μM) for 24 hours. THP-1 cells (2.5×10^5) were co-cultured with 2.5×10^5 PBMC cells in a round bottom 96 well plate for 5 hours. The PBMC cells had been pre-stimulated with zoledronic acid plus IL-2 for at least 11 days to expand Vγ9Vδ2 T cells. After staining for Vγ9Vδ2 and TNF-α using fluorophore-conjugated anti TCR-Vδ2 and anti-TNF-α antibody, cells were analyzed via flow cytometry. Live cells were gated; Vδ2+ and TNF-α+ cells were identified on a dot blot. The activated cytotoxic Vγ9Vδ2 T cells appeared in the upper right quadrant of the flow cytograms. Untreated cells stimulated 3.08% of TNF-α expressing Vγ9Vδ2 T cells, whereas zoledronic acid treatment stimulated 40.1%, FT1277 treatment stimulated 11.7%, and zaragozic acid stimulated 2.13%.

[1] = Example 24, FIG. 28, THP-1 cells treated 10 μM for 24 hours, untreated cells 3.08%

Compound	percent of TNF-α expressing Vγ9Vδ2 T cells [1] [%]	percent of TNF-α expressing Vγ9Vδ2 T cells (Example 24, FIG. 28, THP-1 cells treated 50 μM for 24 hours, untreated cells 3.08%) [%]	percent of TNF-α expressing Vγ9Vδ2 T cells (Example 17, LV-control transduced THP-1 cells, 1 μM zoledronic acid) [%]	percent of TNF-α expressing Vγ9Vδ2 T cells (Example 21, Lv-control transduced THP-1 cells, 1 μM zoledronic acid) [%]
COC(=O)[C@H](CCSC)NC(=O)c1ccc(NC[C@@H](N)CS)cc1-c1ccccc1 [FT1277]	11.7	–	–	–
C=C(CC[C@]12O[C@H](C(=O)O)[C@@](O)(C(=O)O)[C@](C(=O)O)(O1)[C@H](OC(=O)/C=C/[C@@H](C)C[C@@H](C)CC)[C@H]2O)[C@@H](OC(C)=O)[C@H](C)Cc1ccccc1 [zaragozic acid]	–	2.13	–	–
O=P(O)(O)C(O)(Cn1ccnc1)P(=O)(O)O [zoledronic acid]	40.1	–	23.8	5.74
